These results are taken from patent US10351550B2, “Substituted quinazoline compounds and methods of use thereof” (Araxes Pharma LLC, priority 2015, dated 2019).

Each structure is given as a SMILES string. Marks after values point to notes of the source that are not given here.

In this assay the target is T1, KRAS G12C 1-169, his-tagged protein, GDP-loaded (Homo sapiens, UniProt P01116, G12C).
T1 construct: KRAS G12C 1-169, his-tagged protein, GDP-loaded
Nature of the assay: Biochemical assay: covalent binding (% modification) to KRAS G12C by mass spectrometry. As for the experimental part:
Test compounds were prepared as 10 mM stock solutions in DMSO (Fisher cat# BP-231-100). KRAS G12C 1-169, his-tagged protein, GDP-loaded was diluted to 2 μm in buffer (20 mM Hepes, 150 mM NaCl, 1 mM MgCl2). Compounds were tested for activity as follows:
Compounds were diluted to 50× final test concentration in DMSO in 96-well storage plates. Compound stock solutions were vortexed before use and observed carefully for any sign of precipitation. Dilutions were as follow: • 1. For 100 μM final compound concentration, compounds were diluted to 5000 μM (5 μl 10 mM compound stock+5 μl DMSO and mixed well by pipetting. • 2. For 30 μM final compound concentration, compounds were diluted to 1500 μM (3 μl 10 mM compound stock+17 μl DMSO) and mixed well by pipetting. • 3. For 10 μM final compound concentration, compounds were diluted to 500 μM (2 μl 10 mM compound stock+38 μl DMSO) and mixed well by pipetting. 49 μl of the stock protein solution was added to each well of a 96-well PCR plate (Fisher cat#1423027). 1 μl of the diluted 50× compounds were added to appropriate wells in the PCR plate using 12-channel pipettor. Reactions were mixed carefully and thoroughly by pipetting up/down with a 200·1 multi-channel pipettor. […] 5·1 of 2% formic acid (Fisher cat# A117) in DI H2O was then added to each well followed by mixing with a pipette. The plate was then resealed with aluminum seal and stored on dry ice until analyzed as described below.
The above described assays were analyzed by mass spectrometry according to one of the following two procedures:
The MS instrument is set to positive polarity, 2 GHz resolution, and low mass (1700) mode and allowed to equilibrate for 30 minutes. The instrument is then calibrated, switched to acquisition mode and the appropriate method loaded.
After another 30 minute equilibration time, a blank batch (i.e., buffer) is run to ensure equipment is operating properly. The samples are thawed at 37° C. for 10 minutes, briefly centrifuged, and transfer to the bench top. Wells A1 and H12 are spiked with 1 uL 500 uM internal standard peptide, and the plates centrifuged at 2000×g for 5 minutes. The method is then run and masses of each individual well recorded.
The masses (for which integration data is desired) for each well are pasted into the platemap and exported from the analysis. Masses for the internal standards are exported as well. The data at 50 ppm is extracted for the +19 charge state, and identity of well A1 is assigned using the internal standard spike and integrated. Peak data is exported as a TOF list and the above steps are repeated individually, for the +20, 21, 22, 23, 24, and 25 charge states.
The masses and peak intensities of KRAS G12C protein species were measured using a Dionex RSLCnano system (Thermo Scientific) connected to a Q Exactive Plus mass spectrometer (Thermo Scientific).
[…] of sample was each loaded onto a Aeris™ 3.6 μm WIDEPORE C4 200 Å, LC Column 50×2.1 mm column maintained at 40° C. at a flow rate of 600 μl min^1 with 20% Solvent A (0.1% formic acid in H2O) and 80% Solvent B (0.1% formic acid in acetonitrile). The liquid chromatography conditions were 20% solvent B for 1 min, 20% to 60% solvent B for 1.5 min, 60% to 90% solvent for 0.5 min, 90% solvent B for 0.2 min, 90% to 20% solvent B for 0.2 min, and then equilibrated for 1.6 min before the following sample injection. The flow rate was maintained at 600 μl min^1 throughout the sample analysis.
The mass spectrometer was operated in profile mode at a resolution of 17500, 5 microscans, using 50 msec max injection time and an AGC target of 1e6, and a full mass range from 800-1850 m/z was recorded. The HCD trapping gas was optimized for maximum sensitivity for intact proteins. The ionization method was electrospray ionization, which used a spray voltage of 4 kV, sheath gas flow set to 50 au, auxiliary gas flow set to 10 au and sweep gas flow set to 1 au. […]

Setting [1] is: binding activity determined at 4 hours.
Where [2] appears, read: binding activity determined at 6 hours.
The mark [3] stands for this setting: binding activity determined at 2 hours.

For the compound `C=CC(=O)N1CCCC(n2cnc3c(F)c(-c4c(O)cccc4F)c(Cl)cc3c2=O)C1` (stereo not shown) [Compound 1, 3-(1-acryloylpiperidin-3-yl)-6-chloro-8-fluoro-7-(2-fluoro-6-hydroxyphenyl)quinazolin-4(3H)-one], the Binding % result under setting [1] is listed as “++^† (++ indicates binding activity from 5% up to 50%)”.
In the case of `C=CC(=O)NC1CC(n2cnc3c(F)c(-c4c(O)cccc4F)c(Cl)cc3c2=O)C1` (stereo not shown) [Compound 2, N-(3-(6-chloro-8-fluoro-7-(2-fluoro-6-hydroxyphenyl)-4-oxoquinazolin-3(4H)-yl)cyclobutyl)acrylamide], the Binding % entry under setting [1] was “++^† (++ indicates binding activity from 5% up to 50%)”. Where the note is “time and concentration not given”, the “covalently bind to KRAS G12C, extent (% of protein in the well covalently bound to test compound)” value is on record as “greater than 30%”.
As to `C=CC(=O)Nc1cnc2c(F)c(-c3c(O)cccc3F)c(Cl)cc2c1N1CCN(C(C)=O)CC1` [Compound 3, N-(4-(4-acetylpiperazin-1-yl)-6-chloro-8-fluoro-7-(2-fluoro-6-hydroxyphenyl)quinolin-3-yl)acrylamide], the Binding % result under setting [1] is on record as “++^† (++ indicates binding activity from 5% up to 50%)”.
For the compound `C=CC(=O)N1CC(n2cnc3c(F)c(-c4c(O)cccc4F)c(Cl)cc3c2=O)C1` [Compound 4, 3-(1-acryloylazetidin-3-yl)-6-chloro-8-fluoro-7-(2-fluoro-6-hydroxyphenyl)quinazolin-4(3H)-one], the Binding % result under setting [1] was “++^† (++ indicates binding activity from 5% up to 50%)”.
`C=CC(=O)N1CC(n2cnc3cc(-c4c(O)cccc4F)ccc3c2=O)C1` [Compound 5, 3-(1-acryloylazetidin-3-yl)-7-(2-fluoro-6-hydroxyphenyl) quinazolin-4(3H)-one]: under setting [2], the Binding % entry is recorded as “++^‡ (++ indicates binding activity from 5% up to 50%)”.
Take `C=CC(=O)N1CC(n2cnc3c(F)c(-c4cc(O)ccc4Cl)c(Cl)cc3c2=O)C1` [Compound 6, 3-(1-acryloylazetidin-3-yl)-6-chloro-7-(2-chloro-5-hydroxyphenyl)-8-fluoroquinazolin-4(3H)-one]: the Binding % result is “++; (++ indicates binding activity from 5% up to 50%)” under setting [3] and “+++^† (+++ indicates binding activity 50% or greater)” under setting [1].
With `C=CC(=O)N1CC(n2cnc3c(F)c(-c4cc(O)cc5ccccc45)c(Cl)cc3c2=O)C1` [Compound 7, 3-(1-acryloylazetidin-3-yl)-6-chloro-8-fluoro-7-(3-hydroxynaphthalen-1-yl)quinazolin-4(3H)-one], the Binding % result by setting is: under setting [3], “+++; (+++ indicates binding activity 50% or greater)”; under setting [2], “+++^‡ (+++ indicates binding activity 50% or greater)”.
With `C=CC(=O)N1CC(n2cnc3c(F)c(-c4c(C)ccc5cn[nH]c45)c(Cl)cc3c2=O)C1` [Compound 8, 3-(1-acryloylazetidin-3-yl)-6-chloro-8-fluoro-7-(6-methyl-1H-indazol-7-yl)quinazolin-4(3H)-one], under setting [2], the Binding % entry was “++^‡ (++ indicates binding activity from 5% up to 50%)”.
The same measure, in the same setting: the entry for `C=CC(=O)N1CC(n2cnc3c(F)cc(-c4ccccc4O)cc3c2=O)C1` [Compound 9, 3-(1-acryloylazetidin-3-yl)-8-fluoro-6-(2-hydroxyphenyl) quinazolin-4(3H)-one] is “+^‡ (+ indicates binding activity up to 5%)”.
In the case of `C=CC(=O)N1CC(n2cnc3c(Cl)c(-c4cc(O)cc5ccccc45)c(F)cc3c2=O)C1` [Compound 10, 3-(1-acryloylazetidin-3-yl)-8-chloro-6-fluoro-7-(3-hydroxynaphthalen-1-yl)quinazolin-4(3H)-one], the Binding % entry under setting [3] is “+++; (+++ indicates binding activity 50% or greater)” and the Binding % entry under setting [2] is reported as “+++^‡ (+++ indicates binding activity 50% or greater)”.
In the case of `C=CC(=O)N1CC(n2cnc3c(Cl)c(-c4cc(O)cc5ccccc45)c(N)cc3c2=O)C1` [Compound 12, 3-(1-acryloylazetidin-3-yl)-6-amino-8-chloro-7-(3-hydroxynaphthalen-1-yl)quinazolin-4(3H)-one], under setting [3], the Binding % result is “++ (++ indicates binding activity from 5% up to 50%)”.
`C=CC(=O)N1CC(n2cnc3c(Cl)c(-c4cc(O)cc5ccccc45)cc(O)c3c2=O)C1` [Compound 14, 3-(1-acryloylazetidin-3-yl)-8-chloro-5-hydroxy-7-(3-hydroxynaphthalen-1-yl)quinazolin-4(3H)-one]: the Binding % entry under setting [3] is on record as “+++ (+++ indicates binding activity 50% or greater)”.
